The results in this text go back to PubChem BioAssay (NCI).

Some test systems named below: ACHN renal; CAKI-1 renal; EKVX NSCLC; MDA-MB-231 breast; NCI-H23 lung; OVCAR-5 ovarian; PC-3 prostate; RPMI-8226 leukemia; SW-620 colon; UACC-257 melanoma.
Common to all, as to assay: NCI tumour cell line growth inhibition, 48 h

“And” between values parts separate entries of the source, which are not always exact repeats. Equal entries are not always repeated.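 Interpolation was linear, between the two tested concentrations surrounding the appropriate level; five concentrations were tested over 48 hours in 96-well plates. GI50: concentration for 50% inhibition of growth. The concentration for full growth arrest is given as TGI.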

With `O=C(Nc1cccc(-n2ccc3c(NC(=O)c4ccccc4)nccc32)c1)c1ccc(Cl)c(Cl)c1`, the GI50 is 0.177 µM in the test on ACHN renal; 0.0531 µM with CAKI-1 renal; 0.704 µM in the test with EKVX NSCLC; 0.302 µM in the test on MDA-MB-231 breast; 0.342 µM with NCI-H23 lung; 0.476 µM with OVCAR-5 ovarian. Moreover, the GI50 in the test with PC-3 prostate is 0.0965 µM; in the test with RPMI-8226 leukemia, 0.263 µM; with SW-620 colon, 0.106 µM; in the test on UACC-257 melanoma it was 1.2 µM. Moreover, the TGI was 1.71 µM in the test with ACHN renal; 1.9 µM with CAKI-1 renal; 3.34 µM in the test on EKVX NSCLC; 1.34 µM with MDA-MB-231 breast; 2.47 µM in the test with NCI-H23 lung; 1.71 µM in the test on OVCAR-5 ovarian. Also, the TGI turned out to be 1.52 µM in the test on PC-3 prostate, 1.16 µM in the test on RPMI-8226 leukemia, 1.48 µM with SW-620 colon and 2.98 µM in the test on UACC-257 melanoma.

Regarding `O=C(C(=O)c1cccnc1)c1cccnc1`, the GI50 with ACHN renal, in the test on CAKI-1 renal, in the test on EKVX NSCLC, with MDA-MB-231 breast, with NCI-H23 lung and in the test with OVCAR-5 ovarian was over 100 µM throughout. Moreover, the GI50 with PC-3 prostate, in the test with RPMI-8226 leukemia, in the test with SW-620 colon and in the test with UACC-257 melanoma was over 100 µM throughout. Further, the TGI in the test on ACHN renal, with CAKI-1 renal, in the test with EKVX NSCLC, with MDA-MB-231 breast, in the test on NCI-H23 lung and in the test on OVCAR-5 ovarian was over 100 µM each time. Further, the TGI in the test on PC-3 prostate, in the test on RPMI-8226 leukemia, in the test with SW-620 colon and in the test with UACC-257 melanoma was over 100 µM throughout.

On to `O=c1[nH][nH]c(=O)c2c(O)c(-c3ccccc3)ncc12`, for which the GI50 was 182 µM in the test on ACHN renal; 83.8 µM and 145 µM in the test with CAKI-1 renal; 228 µM in the test with EKVX NSCLC; 37.7 µM and 113 µM in the test on MDA-MB-231 breast; 75.9 µM and 194 µM with NCI-H23 lung; 60 µM and 160 µM with OVCAR-5 ovarian. The GI50 with PC-3 prostate is 44.5 µM and 143 µM; in the test on RPMI-8226 leukemia it was 79.2 µM and 283 µM; with SW-620 colon, 45.8 µM and 188 µM; with UACC-257 melanoma, 46.2 µM and 272 µM. Also, the TGI was 845 µM in the test with ACHN renal; 748 µM in the test with CAKI-1 renal; 939 µM with EKVX NSCLC; 385 µM in the test with MDA-MB-231 breast; 827 µM in the test with NCI-H23 lung; 832 µM with OVCAR-5 ovarian. The TGI in the test on PC-3 prostate is 662 µM; in the test with RPMI-8226 leukemia, 706 µM; in the test on SW-620 colon it was 891 µM; with UACC-257 melanoma, 871 µM.

On to `Cc1cnc(-c2ccc(-c3ccc(NC(=O)Nc4cccc(C(F)(F)F)c4)cc3F)c3c2C(=O)NC3)[nH]1`, for which the GI50 in the test with ACHN renal was 1.97 µM; with CAKI-1 renal, 2.18 µM; in the test on EKVX NSCLC, 26 µM; in the test with MDA-MB-231 breast it was 26 µM; with NCI-H23 lung it was 4.42 µM; with OVCAR-5 ovarian, 28.4 µM. Besides, the GI50 in the test on PC-3 prostate was 15.7 µM; in the test with RPMI-8226 leukemia, 10.7 µM; with SW-620 colon, 0.081 µM; with UACC-257 melanoma, 13.5 µM. In addition, the TGI with ACHN renal is over 52.8 µM; with CAKI-1 renal it was over 44.9 µM; in the test on EKVX NSCLC it was over 50.6 µM; with MDA-MB-231 breast it was over 57.3 µM; in the test on NCI-H23 lung, 33.5 µM; in the test on OVCAR-5 ovarian it was over 59.8 µM. The TGI with PC-3 prostate is over 50.6 µM; in the test with RPMI-8226 leukemia it was 52.3 µM; in the test on SW-620 colon, 17.4 µM; in the test with UACC-257 melanoma, over 66 µM.

Take `Cc1cc2oc(=O)cc(OC/C=C3/CCC(=O)O3)c2cc1C`: the GI50 in the test with ACHN renal was 0.804 µM; with CAKI-1 renal, 3.59 µM; with EKVX NSCLC it was 12.9 µM; in the test with MDA-MB-231 breast, 7.71 µM; with NCI-H23 lung it was 8.04 µM; with OVCAR-5 ovarian it was 8.7 µM. In addition, the GI50 in the test with PC-3 prostate was 1.74 µM; with RPMI-8226 leukemia, 0.512 µM; in the test with SW-620 colon, 2.78 µM; in the test on UACC-257 melanoma it was 12.3 µM. Further, the TGI in the test on ACHN renal is 2.04 µM; in the test with CAKI-1 renal it was 17.7 µM; in the test with EKVX NSCLC it was 30.5 µM; in the test on MDA-MB-231 breast, 21 µM; in the test with NCI-H23 lung it was 22.5 µM; in the test with OVCAR-5 ovarian, 22.9 µM. Also, the TGI in the test with PC-3 prostate worked out at 11.4 µM; in the test on RPMI-8226 leukemia it was 4.01 µM; in the test with SW-620 colon, 11.6 µM; with UACC-257 melanoma, 26.4 µM.

For the compound `Cn1c2ccccc2c2c(=O)n(CCCC(=O)NCCc3cnc[nH]3)c3c(-c4ccccc4)nnn3c21`, the GI50 with ACHN renal was 9.74 µM; with CAKI-1 renal, 12 µM; with EKVX NSCLC, 10 µM; in the test on MDA-MB-231 breast it was 9.27 µM; in the test on NCI-H23 lung it was 13.3 µM; in the test on OVCAR-5 ovarian it was 10.8 µM. The GI50 in the test on PC-3 prostate is 9.01 µM; in the test on RPMI-8226 leukemia, 10.5 µM; in the test on SW-620 colon, 13 µM; with UACC-257 melanoma it was 12 µM. Also, the TGI in the test with ACHN renal amounted to 17.9 µM; in the test with CAKI-1 renal, 33.4 µM; with EKVX NSCLC it was 23.9 µM; in the test on MDA-MB-231 breast, 18.6 µM; with NCI-H23 lung, 46.9 µM; with OVCAR-5 ovarian, 20.3 µM. Moreover, the TGI in the test on PC-3 prostate was found to be 20.1 µM; with RPMI-8226 leukemia, 28.6 µM; with SW-620 colon, 30.2 µM; in the test on UACC-257 melanoma it was 21.6 µM.

As for `COc1ccc2c(c1)C(=O)/C(=C/c1cccc(OCC(=O)c3ccc([N+](=O)[O-])cc3)c1)CO2`, the GI50 is 2.32 µM with ACHN renal; 3.85 µM in the test on CAKI-1 renal; 7.68 µM in the test with EKVX NSCLC; 3.67 µM in the test with MDA-MB-231 breast; 2.52 µM with NCI-H23 lung; 2.34 µM in the test with OVCAR-5 ovarian. Besides, the GI50 with PC-3 prostate was 2.13 µM; in the test on RPMI-8226 leukemia it was 1.13 µM; in the test on SW-620 colon it was 1.45 µM; in the test with UACC-257 melanoma, 3.73 µM. Also, the TGI in the test on ACHN renal was 6.41 µM; in the test with CAKI-1 renal, 10.4 µM; in the test with EKVX NSCLC, 21.9 µM; in the test on MDA-MB-231 breast it was 14.2 µM; with NCI-H23 lung it was 6.33 µM; with OVCAR-5 ovarian, 5.08 µM. For the same compound, the TGI in the test on PC-3 prostate was determined as 7.95 µM; in the test on SW-620 colon it was 2.96 µM; in the test with UACC-257 melanoma, 10.2 µM.
